In US4344949A, “Substituted acyl derivatives of 1,2,3,4-tetrahydroisoquinoline-3-carboxylic acids” (Warner-Lambert Company, priority 1981, dated 1982):
Counter-ions that a name gives are not always drawn.

Molecular target: T1, guinea pig serum ACE (angiotensin converting enzyme) (Cavia porcellus, UniProt H0UWL7)
T1 construct: ACE from guinea pig serum; from tissue; host or cells: guinea pig serum
T1 sequence (H0UWL7 33-1302): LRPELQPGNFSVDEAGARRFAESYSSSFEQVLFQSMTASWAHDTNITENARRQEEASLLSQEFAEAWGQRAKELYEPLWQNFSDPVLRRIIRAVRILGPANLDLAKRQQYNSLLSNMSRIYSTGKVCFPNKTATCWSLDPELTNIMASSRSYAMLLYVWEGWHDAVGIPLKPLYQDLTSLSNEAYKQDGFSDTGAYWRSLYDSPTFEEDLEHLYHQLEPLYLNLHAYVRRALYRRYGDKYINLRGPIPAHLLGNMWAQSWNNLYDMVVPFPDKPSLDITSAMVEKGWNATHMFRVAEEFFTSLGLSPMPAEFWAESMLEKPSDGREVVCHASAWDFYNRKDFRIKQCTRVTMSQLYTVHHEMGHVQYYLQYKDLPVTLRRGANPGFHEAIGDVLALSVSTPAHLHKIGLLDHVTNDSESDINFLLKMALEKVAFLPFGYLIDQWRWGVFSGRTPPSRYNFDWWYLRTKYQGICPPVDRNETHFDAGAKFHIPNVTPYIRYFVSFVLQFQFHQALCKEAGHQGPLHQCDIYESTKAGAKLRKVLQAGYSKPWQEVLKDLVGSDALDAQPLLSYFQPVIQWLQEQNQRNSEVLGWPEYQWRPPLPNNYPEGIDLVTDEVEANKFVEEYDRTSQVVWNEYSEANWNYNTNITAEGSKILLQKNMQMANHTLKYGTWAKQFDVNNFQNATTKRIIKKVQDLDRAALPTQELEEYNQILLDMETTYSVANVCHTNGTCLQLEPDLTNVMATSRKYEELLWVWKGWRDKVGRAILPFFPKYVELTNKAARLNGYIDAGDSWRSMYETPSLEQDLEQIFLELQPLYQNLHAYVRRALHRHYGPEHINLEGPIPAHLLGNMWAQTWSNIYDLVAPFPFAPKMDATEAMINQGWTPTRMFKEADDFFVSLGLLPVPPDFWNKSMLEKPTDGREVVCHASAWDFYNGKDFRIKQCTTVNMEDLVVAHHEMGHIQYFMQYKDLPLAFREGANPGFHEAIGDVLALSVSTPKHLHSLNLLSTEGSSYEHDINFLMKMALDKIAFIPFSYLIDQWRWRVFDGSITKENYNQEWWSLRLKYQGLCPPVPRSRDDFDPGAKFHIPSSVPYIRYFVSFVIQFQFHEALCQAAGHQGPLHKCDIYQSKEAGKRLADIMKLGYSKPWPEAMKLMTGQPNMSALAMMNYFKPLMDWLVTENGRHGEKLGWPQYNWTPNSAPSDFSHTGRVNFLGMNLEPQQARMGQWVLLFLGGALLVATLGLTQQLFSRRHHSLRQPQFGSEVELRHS
Test: In vitro ACE assay (angiotensin converting enzyme inhibitory activity, guinea pig serum ACE, 3H-hippuryl-glycyl-glycine substrate)
Assay type: biochemical
Details: 10 min preincubation, 60 min incubation at 37° C., S,S,S configuration, hydrochloride salt (+) or maleate salt (#) by footnote, read-out: ACE I Activity (in vitro) IC50 Molar Conc.
Procedure: In vitro ACE Assay: Angiotensin converting enzyme (ACE) inhibitory activity was determined by assaying guinea pig serum ACE in the presence and absence of the test compound. ACE from guinea pig serum and the test compounds were preincubated for 10 minutes before the addition of the labelled substrate ^3 H-hippuryl-glycyl-glycine. After a 60 minute incubation of 37° C. the reaction was stopped by the addition of 0.1 N HCl. ACE cleaves the hippuryl-glycyl bond to form the dipeptide glycyl-glycine and ^3 H-hippuric acid. The ^3 H-hippuric acid was then extracted with ethyl acetate and the ACE activity of a given sample calculated as the amount of ^3 H-hippuric acid generated.

| SMILES | IC50 |
| --- | --- |
| CCOC(=O)[C@H](CCc1ccccc1)N[C@@H](C)C(=O)N1Cc2cc(OC)c(OC)cc2C[C@H]1C(=O)O [R=H, R2=Et, X=OCH3, Y=OCH3, 2-[2-[[1-(Ethoxycarbonyl)-3-phenylpropyl]amino]-1-oxopropyl]-1,2,3,4-tetrahydro-6,7-dimethoxy-3-isoquinolinecarboxylic Acid, Hydrochloride, Hydrate (S,S,S)] | 5.6 nM |
| CCOC(=O)[C@H](CCc1ccccc1)N[C@@H](C)C(=O)N1Cc2cc(OC)c(OC)cc2C[C@H]1C(=O)OCc1ccccc1 [R=PhCH2, R2=Et, X=OCH3, Y=OCH3, 2-[2-[[1-(Ethoxycarbonyl)-3-phenylpropyl]amino]-1-oxopropyl]-1,2,3,4-tetrahydro-6,7-dimethoxy-3-isoquinolinecarboxylic Acid, Phenylmethyl Ester, Maleate (S,S,S)] | 300 nM |
| CCOC(=O)[C@H](CCc1ccccc1)N[C@@H](C)C(=O)N1Cc2ccccc2C[C@H]1C(=O)OCc1ccccc1 [R=PhCH2, R2=Et, X=H, Y=H, 2-[2-[[1-(Ethoxycarbonyl)-3-phenylpropyl]amino]-1-oxopropyl]-1,2,3,4-tetrahydro-3-isoquinolinecarboxylic Acid, Phenylmethyl Ester, Maleate (S,S,S)] | 2000 nM |
| CCOC(=O)[C@H](CCc1ccccc1)N[C@@H](C)C(=O)N1Cc2ccccc2C[C@H]1C(=O)OC(C)(C)C [R=t-Bu, R2=Et, X=H, Y=H] | 3200 nM |
